Assay results: patent publication US4962096A, “Heterocyclic glycerol derivatives and their use as anti-hypertensive agents” (Nippon Chemiphar Co., Ltd., priority 1987, dated 1990)

Key:
Male Wistar rats = assay: Blood pressure reducing action: intravenous injection (MABP50); type: in vivo, rat; settings: anesthetized male Wistar rats, injection in saline with 0.25% bovine serum albumin, from dose-response curve; for ED (50 mmHg): Rattus norvegicus, iv, read-out: MABP50 (dose required for reducing a mean blood pressure by 50 mmHg)
Experimental: Male Wistar rats (mean body weight: 420 g) were anesthetized by intraperitoneal injection of 50 mg/kg of pentobarbital sodium, and their blood pressures were measured at left femoral artery. Subsequently, a compound to be tested was dissolved in a saline solution containing 0.25% bovine serum albumin and injected into the rat through the right femoral artery.
A dose-response curve was prepared from the obtained values for each of the following compounds of the present invention to determine a dose required for reducing a mean blood pressure by 50 mmHg (MABP50).

platelet = assay: Platelet aggregation action in platelet rich plasma; type: cell-based; settings: rabbit PRP, 300,000 platelets/mm^3, final concentration 2×10^-10 to 2×10^-4 M, unit inferred
Experimental: A male Japanese white rabbit was anesthetized by pentobarbital, and a blood was collected in aqueous 3.13% sodium citrate solution at its carotid. The blood containing 1/10 volume ratio of the sodium citrate solution was treated in a conventional manner to give a platelet rich plasma (PRP) and a platelet poor plasma (PPP) for performing the following experiment.
(§1) PRP was diluted with PPP to give a sample containing platelets at 300,000/mm^3.
Aggregation of platelet was determined by means of Platelet Aggregation Tracer PAT-4A(available from Niko Bioscience Co., Ltd., Japan). 10 μl of a test solution was added to 190 μl of PRP to give a final concentration of 2×10^-10 to 2×10^-4 M, and an aggregation curve is recorded. For the preparation of the test solution, a saline solution containing 0.25% bovine serum albumin.
According to the aggregation curve obtained for each of the following compound of the present invention, following EC50 value was obtained.

[1] = tested on: Male spontaneously hypertensive rats; assay: Blood pressure reducing action: oral administration; type: in vivo, rat
Experimental: Male spontaneously hypertensive rats (average body weight: 359 g) were anesthetized with ether. Blood pressure was measured for each rat through cannulation at its left femoral artery. A compound to be tested was dissolved in a distilled water and the resulting aqueous solution was administered orally.

[2] = tested on: PAF-induced platelet aggregation; assay: Inhibitory effect on PAF-induced platelet aggregation; type: cell-based; settings: rabbit PRP; PAF 1×10^-8 M, test concentration not readable
Experimental: In the same manner as above, a platelet rich plasma (PRP) and a platelet poor plasma (PPP) were prepared for performing the following experiment.
as §1
10 μl of a test solution was added to 180 μl of PRP. To the resulting mixture was added 10 μl of a solution of a commercially available PAF (No.P-4904, available from Sigma Corp.) to give a concentration of 1×10^-8 M, and aggregation was observed. For the preparation of the test solution and the PAF solution, a saline solution containing 0.25% bovine serum albumin was employed.
The effect of the test sample for suppressing aggregation was obtained in terms of a degree of suppression of the maximum aggregation in the control PRP caused by the PAF.

[3] = Oryctolagus cuniculus, Platelet

EC50 (platelet; [3]) [nM] | Compound | ED (50 mmHg) (Male Wistar rats) [µg/kg] | further results
90 | CCCCCCCCCCCCCCCCOCC(COP(=O)([O-])OCC1CC[N+](C)(C)CC1)OC(C)=O (stereo not drawn) [G, 2-acetyloxy-3-hexadecyloxypropyl 1,1-dimethylpiperidinio-4-ylmethyl phosphate] | 0.97 | 
73 | CCCCCCCCCCCCCCCCOC(C)C(COP(=O)([O-])OCCc1sc[n+](C)c1C)OC(C)=O (stereo not drawn) [W, 2-acetyloxy-3-hexadecyloxybutyl 3,4-dimethylthiazolio-5-ylethyl phosphate] | 0.067 | Change of Blood Pressure About 30 min. after Administration ([1]; 1 mg/kg): -36.0 mmHg
1.5 | CCCCCCCCCCCCCCCCOCC(COP(=O)([O-])OCC1CCC[N+](C)(C)C1)OC(C)=O (stereo not drawn) [F, 2-acetyloxy-3-hexadecyloxypropyl 1,1-dimethylpiperidinio-3-ylmethyl phosphate] | 0.058 | 
10 | CCCCCCCCCCCCCCCCOCC(COP(=O)([O-])OCC1CCCC[N+]1(C)C)OC(C)=O (stereo not drawn) [Compound E, 2-acetyloxy-3-hexadecyloxypropyl 1,1-dimethylpiperidinio-2-ylmethyl phosphate] | 0.132 | 
 | CCCCCCCCCCCCCCCCOCC(COP(=O)([O-])OCC1CCCC[N+]1(C)C)OCc1ccccc1 (stereo not drawn) [L, 2-Benzyloxy-3-hexadecyloxypropyl 1,1-dimethylpiperidinio-2-ylmethyl phosphate] |  | degree of suppression of the maximum aggregation caused by the PAF [2]: 55%
 | CCCCCCCCCCCCCCCCOCC(COP(=O)([O-])OCC1=CCC[N+](C)(C)C1)OC(C)=O (stereo not drawn) [R, 2-acetyloxy-3-hexadecyloxypropyl 1,1-dimethyl-1,2,5,6-tetrahydropyridinio-3-ylmethyl phosphate] | 0.024 | 
 | CCCCCCCCCCCCCCCCOCC(COP(=O)([O-])OC(c1ccccc1)C1CCC[N+]1(C)C)OCc1ccccc1 (stereo not drawn) [K, 2-Benzyloxy-3-hexadecyloxypropyl threo-1,1-dimethylpyrrolidinio-2-ylphenylmethyl phosphate] |  | degree of suppression of the maximum aggregation caused by the PAF [2]: 73%
670 | CCCCCCCCCCCCCCCCOCC(COP(=O)([O-])OCC1CSC(c2ccccc2)[N+]1(C)C)OC(C)=O (single isomer, unassigned) [S(Product A), 2-acetyloxy-3-hexadecyloxypropyl 3,3-dimethyl-2-phenyl-1,3-thiazolidinio-4-ylmethyl phosphate] |  | MABP50 (dose required for reducing a mean blood pressure by 50 mmHg) (Male Wistar rats): 0.16 µg/kg
3.2 | CCCCCCCCCCCCCCCCOCC(COP(=O)([O-])OCCc1sc[n+](C)c1C)OC(C)=O (stereo not drawn) [T, 2-acetyloxy-3-hexadecyloxypropyl 3,4-dimethylthiazolio-5-ylethyl phosphate] | 0.00023 | Change of Blood Pressure About 30 min. after Administration ([1]; 10 mg/kg): -35.3 mmHg
 | CCCCCCCCCCCCCCCCOCC(COP(=O)([O-])OC(c1ccccc1)C1CCC[N+]1(C)C)OC(C)=O (stereo not drawn) [M, 2-Acetyloxy-3-hexadecyloxypropyl erythro-1,1-dimethylpyrrolidinio-2-ylphenylmethyl phosphate] |  | degree of suppression of the maximum aggregation caused by the PAF [2]: 100%
77 | CCCCCCCCCCCCCCCCOC(C)C(COP(=O)([O-])OCC1=CCC[N+](C)(C)C1)OC(C)=O (stereo not drawn) [V, 2-acetyloxy-3-hexadecyloxybutyl 1,1-dimethyl-1,2,5,6-tetrahydropyridinio-3-ylmethyl phosphate] | 0.64 | Change of Blood Pressure About 30 min. after Administration ([1]; 3 mg/kg): -49.0 mmHg
 | 2-Acetyloxy-3-hexadecyloxypropyl 1-(1-fluorophenyl)-2-methylisoquinolinio-3-ylmethyl phosphate |  | degree of suppression of the maximum aggregation caused by the PAF [2]: 100%
50 | CCCCCCCCCCCCCCCCOCC(COP(=O)([O-])OCC1CCc2ccccc2[N+]1(C)C)OC(C)=O (stereo not drawn) [P, 2-acetyloxy-3-hexadecyloxypropyl 1,1-dimethyl-1,2,3,4-tetrahydroquinolinio-2-ylmethyl phosphate] | 0.11 | 
180 | CCCCCCCCCCCCCCCCOCC(COP(=O)([O-])OCC1Cc2ccccc2C[N+]1(C)C)OC(C)=O (stereo not drawn) [O, 2-acetyloxy-3-hexadecyloxypropyl 2,2-dimethyl-1,2,3,4-tetrahydroisoquinolinio-3-ylmethyl phosphate] | 3.2 | 
0.5 | CCCCCCCCCCCCCCCCOCC(COP(=O)([O-])OCC1CCC[N+]1(C)C)OC(C)=O (stereo not drawn) [D, 2-acetyloxy-3-hexadecyloxypropyl 1,1-dimethylpyrrolidinio-2-ylmethyl phosphate] | 0.024 | 
 | CCCCCCCCCCCCCCCCOCC(COP(=O)([O-])OC(c1ccccc1)C1CCC[N+]1(C)C)OCc1ccccc1 (stereo not drawn) [J, 2-Benzyloxy-3-hexadecyloxypropyl erythro-1,1-dimethylpyrrolidinio-2-ylphenylmethyl phosphate] |  | degree of suppression of the maximum aggregation caused by the PAF [2]: 99%
2.4 | CCCCCCCCCCCCCCCCOCC(COP(=O)([O-])OCCC1CCC[N+]1(C)C)OC(C)=O (stereo not drawn) [H, 2-acetyloxy-3-hexadecyloxypropyl 2-(1,1-dimethylpyrrolidinio-2-yl)ethylphosphate] | 0.058 | 
 | CCCCCCCCCCCCCCCCOCC(COP(=O)([O-])OCCc1ccc[n+](C)c1)OC(C)=O (stereo not drawn) [U, 2-acetyloxy-3-hexadecyloxypropyl 1-methylpyridinio-3-ylethyl phosphate] |  | MABP50 (dose required for reducing a mean blood pressure by 50 mmHg) (Male Wistar rats): 0.195 µg/kg; EC50 (platelet): 85 nM
0.52 | CCCCCCCCCCCCCCCCOCC(COP(=O)([O-])OCC1CSC[N+]1(C)C)OC(C)=O (stereo not drawn) [Q, 2-acetyloxy-3-hexadecyloxypropyl 3,3-dimethyl-1,3-thiazolidinio-4-ylmethyl phosphate] | 0.032 | 
 | CCCCCCCCCCCCCCCCOC(C)C(COP(=O)([O-])OC(c1ccccc1)C1CCC[N+]1(C)C)OCc1ccccc1 (stereo not drawn) [I, 2-Benzyloxy-3-hexadecyloxybutyl erythro-1,1-dimethylpyrrolidinio-2-ylphenylmethyl phosphate] |  | degree of suppression of the maximum aggregation caused by the PAF [2]: 100%
 | CCCCCCCCCCCCCCCCOCC(COP(=O)([O-])OCC1CSC(c2ccccc2)[N+]1(C)C)OC(C)=O (single isomer, unassigned) [S(Product B), 2-acetyloxy-3-hexadecyloxypropyl 3,3-dimethyl-2-phenyl-1,3-thiazolidinio-4-ylmethyl phosphate] |  | MABP50 (dose required for reducing a mean blood pressure by 50 mmHg) (Male Wistar rats): 0.35 µg/kg; EC50 (platelet): 740 nM

Compound | EC50 (platelet; [3]) [nM] | ED (50 mmHg) (Male Wistar rats) [µg/kg] | further results
CCCCCCCCCCCCCCCCOC(C)C(COP(=O)([O-])OC1C[N+]2(C)CCC1CC2)OC(C)=O (stereo not drawn) [C, 2-acetyloxy-3-hexadecyloxybutyl 1-methyl-1-azoniabicyclo[2,2,2]-3-octylphosphate] | 5.2 | 0.099 | Change of Blood Pressure About 30 min. after Administration ([1]; 3 mg/kg): -64.5 mmHg
CCCCCCCCCCCCCCCCOCC(COP(=O)([O-])OC1CC2CCC(C1)[N+]2(C)C)OC(C)=O (stereo not drawn) [B, 2-acetyloxy-3-hexadecyloxypropyl endo-8,8-dimethyl-8-azoniabicyclo[3,2,1]-3-octyl phosphate] | 2.3 | 0.12 | 
CCCCCCCCCCCCCCCCOCC(COP(=O)([O-])OC1C[N+]2(C)CCC1CC2)OC(C)=O (stereo not drawn) [A, 2-acetyloxy-3-hexadecyloxypropyl 1-methyl-1-azoniabicyclo[2,2,2]-3-octyl phosphate] | 0.76 | 0.005 | 
